Experimental data from patent US20180200326A1, “ANG-(1-7) AND DERIVATIVE OLIGOPEPTIDES FOR THE TREATMENT OF TRAUMATIC BRAIN INJURY AND OTHER COGNITIVE IMPAIRMENTS” (Arizona Board Of Regents On Behalf Of The University of …, priority 2017, published 2018).
pKd: −log10 of the molar value. Where two headings read alike, the source gives them in different places. Peptide text beside a SMILES is read from it. * marks the point of attachment. X2 = OC[C@H]1O[C@@H](O[C@H]2[C@H](O)[C@@H](O)C(*)O[C@@H]2CO)[C@H](O)[C@@H](O)[C@H]1O; X1 = OC[C@H]1OC(*)[C@H](O)[C@@H](O)[C@@H]1O

What was measured:
[1] = mouse, serum
Method: (§3) Aliquots were withdrawn at the indicated time intervals and the peptide concentration was determined using HPLC-MS and expressed as a percentage of the initial concentration.

[2] = test system: CHF mice (object recognition memory impairment); test: Novel Object Recognition (NOR) in congestive heart failure mice; format: in vivo, mouse; conditions: 1 mg/kg/day subcutaneous, approximately 21 days, n=11, DRatio=(t novel−t familiar)/(t novel+t familiar), CHF-saline M=−0.05, Sham-saline M=+0.52
Method: (§1) A total of 33, male C57Bl/6J adult mice (Harlan, 8-10 weeks old) were used. Mice were randomly assigned to either the sham (n=12) or congestive heart failure (CHF) group (n=21). Experimental groups are described as follows: sham+saline, CHF+saline, CHF+PN-A5. All mice prior to surgery were weighed and anesthetized. For the CHF mice, MI was induced by ligation of the left coronary artery (LCA). Under anesthesia (2.5% isoflurane in a mixture of air and O2) a thoracotomy was performed at the fourth left intercostal space and the LCA permanently ligated to induce a myocardial infarction (MI). […]
The apparatus consisted of an evenly illuminated Plexiglas box (12 cm×12 cm×12 cm) placed on a table inside an isolated observation room. […] The mouse behavior and exploration of objects was recorded with a digital camera. […]
The novel object recognition task included 3 phases: habituation phase, familiarization phase, and test phase. […] Exploration was scored by an observer blind to the mouse's surgical group (CHF vs. Sham). […]
Discrimination ratios were calculated from the time spent exploring the novel object minus time spent exploring the familiar object during the test phase divided by the total exploration time. […] Data were analyzed from first 2 minutes of ‘test phase’. […]

[3] = test system: human umbilical vascular endothelial cells (HUVEC); test: NO production assay (DAF-FM fluorescence, microplate reader); format: cell-based; conditions: 5 minutes exposure; for NO over control levels (relative peak fluorescence intensity): normalized to control fluorescence
Excerpt: (§2) To isolate primary hippocampal CA1 neuronal cells, whole brain was removed from neonatal rat pups (1-2 day old) and the cortices dissected away. The hippocampus was isolated and the CA1 field was excised and placed in buffer. After gentle disruption in digestion buffer, the cells were counted, placed in culture media, and plated in a 96-well format coated with poly-d-lysine. At the time of plating, cells were approximately at 50% density and were allowed to culture to 70-80% density before starting the assay. Commercially available HUVEC (Life Technologies/Thermo Fisher) was thawed and plated (5000-10,000 cells/well) in a 96-well format coated with gelatin. HUVEC cells were allowed to culture overnight before starting the assay.
As a screen for mechanisms of action of oligopeptides of the invention, the ability to increase NO production of three oligopeptides of the invention (PN-A3, PN-A4 and PN-A5) were characterized and compared to native Ang-(1-7). Human umbilical vascular endothelial cells (HUVEC) culture plates received fluorescence reaction buffer (0.2 M phosphate buffer, pH 7, 1 mM EDTA, 0.1% glucose) containing diaminofluorescein-FM diacetate (DAF-FM, 1 μM) to measure real-time NO production. Time-resolved (10 minutes) fluorescent intensity was detected using a BioTek Synergy 2 microplate reader with excitation at 485 nm and emission at 535 nm. DAF-FM is a sensitive flourometric derivative for the selective detection of NO in live cells.
Values were normalized to control fluorescence.

[4] = In vivo serum and CSF concentration after subcutaneous injection; conditions: naïve mice; 10 mg/kg subcutaneous; microdialysis probe; corrected for basal CSF levels
Method: (§4) The peptides (10 mg/kg) or vehicle control were individually subcutaneously injected into naïve mice. Serum concentrations were determined every 10 minutes by HPLC-MS using a 20-30 μl blood sample. […] CSF samples were simultaneously withdrawn from the same animals via a microdialysis probe and assayed for the peptide concentration and corrected for basal CSF levels.

[5] = test system: human umbilical vascular endothelial cells (HUVEC); test: xCELLigence RTCA cell activation (cell impedance); format: cell-based; conditions: average of 4 wells, normalized to CI at compound addition
Excerpt: as §2
The xCELLigence system Real-Time Cell Analyzer (RTCA), developed by Roche Applied Science, uses microelectronic biosensor technology to do dynamic, real-time, label-free, and non-invasive analysis of cellular events including G-protein receptor activation of cells. The RTCA analysis was utilized to measure the potency and relative ability of oligopeptides of the invention and native Ang-(1-7) to activate human umbilical vascular endothelial cells (HUVEC) in culture. Following uniform cellular adherence based on a linear increase in cell impedance (CI), HUVECs were treated with Ang-(1-7) and oligopeptides of the invention. Each trace of the CI over time in FIG. 1 represents the average of 4 wells normalized to CI at the time of compound addition.

[6] = test system: CHF mice (spatial memory impairment); test: Morris water task (spatial memory) in congestive heart failure mice; format: in vivo, mouse; conditions: 1 mg/kg/day subcutaneous, approximately 25 days, day 3 of Morris swim task, n=11, CHF-saline M=32.5
Method: as §1, with “(MI). Occlusion of the LCA was confirmed by observing blanching, a slight change in color of the anterior wall of the left ventricle downstream of the ligature. Sham mice underwent the same procedure with the exception of ligating the LCA.” for “(MI).”
During the spatial version of the Morris water task, all animals were given 6 training trials per day over 4 consecutive days. […] Performance on the swim task was analyzed with a commercial software application (ANY-maze, Wood Dale, Ill.). Because different release locations and differences in swimming velocity produce variability in the latency to reach the escape platform, a corrected integrated path length (CIPL) was calculated to ensure comparability of mice performance across different release locations. […]

[7] = In Vitro Serum Half-Life Assay; conditions: mouse
Method: as §3

[8] = in vivo; conditions: mouse, sc, 10 mg/kg
Method: as §4

[9] = mouse, in vivo, sc, 10 mg/kg
Method: as §4

[10] = target: T1, Mas receptor (MasR) (Homo sapiens, UniProt P04201); conditions: binding to GPCR Mas receptor (MasR); cited from earlier work
T1 sequence (P04201 1-325): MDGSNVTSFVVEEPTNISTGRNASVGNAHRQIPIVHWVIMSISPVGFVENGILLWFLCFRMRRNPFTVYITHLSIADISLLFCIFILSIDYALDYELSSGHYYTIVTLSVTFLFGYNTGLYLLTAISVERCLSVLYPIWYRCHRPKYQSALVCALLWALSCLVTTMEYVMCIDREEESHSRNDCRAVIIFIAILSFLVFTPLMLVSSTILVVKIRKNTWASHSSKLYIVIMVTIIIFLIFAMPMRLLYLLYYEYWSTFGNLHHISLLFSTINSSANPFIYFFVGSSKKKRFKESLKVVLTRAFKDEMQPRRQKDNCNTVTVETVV

Molecule	half-life [1]	NO over control levels (relative peak fluorescence intensity) [3]	increase in CI (cell impedance) over the native Ang-(1-7) ([5]; 10 nM)	increase in CI (cell impedance) over the native Ang-(1-7) ([5]; 100 nM)	other results
CC[C@H](C)[C@H](NC(=O)[C@H](Cc1ccc(O)cc1)NC(=O)[C@@H](NC(=O)[C@H](CCCNC(=N)N)NC(=O)[C@@H](N)CC(=O)O)C(C)C)C(=O)N[C@@H](Cc1c[nH]cn1)C(=O)N1CCC[C@H]1C(N)=O [PN-A2, Ang 1-7-NH2]	21 min				
CC[C@H](C)[C@H](NC(=O)[C@H](Cc1ccc(O)cc1)NC(=O)[C@@H](NC(=O)[C@H](CCCNC(=N)N)NC(=O)[C@@H](N)CC(=O)O)C(C)C)C(=O)N[C@@H](Cc1c[nH]cn1)C(=O)N[C@@H](COC1O[C@H](CO)[C@@H](O)[C@H](O)[C@H]1O)C(N)=O (stereo partly drawn) [PN-A5, Ang 1-6-Ser(OGlc)-NH2] (H-DRVYIHS(X1)-NH2; N-terminus assumed)		significant elevation	~2 fold	~2 fold	discrimination ratio in NOR test (mean M) [2]: +0.38; NO production compared with native Ang-(1-7) ([3]; p<0.05): significantly enhancing NO production; maximum CSF concentration [4]: about 400 nM; corrected integrated path length (CIPL), mean M [6]: 23.5
CC[C@H](C)[C@H](NC(=O)[C@H](Cc1ccc(O)cc1)NC(=O)[C@@H](NC(=O)[C@H](CCCNC(=N)N)NC(=O)[C@@H](N)CC(=O)O)C(C)C)C(=O)N[C@@H](Cc1c[nH]cn1)C(=O)N[C@@H](COC1O[C@H](CO)[C@@H](O[C@@H]2O[C@H](CO)[C@H](O)[C@H](O)[C@H]2O)[C@H](O)[C@H]1O)C(N)=O (stereo partly drawn) [PN-A6, Ang 1-6-Ser(OLac)-NH2] (H-DRVYIHS(X2)-NH2)					half-life [7]: 348 min
CC[C@H](C)[C@H](NC(=O)[C@H](Cc1ccc(O)cc1)NC(=O)[C@@H](NC(=O)[C@H](CCCNC(=N)N)NC(=O)[C@@H](N)CC(=O)O)C(C)C)C(=O)N[C@@H](Cc1c[nH]cn1)C(=O)N1CCC[C@H]1C(=O)O [native Ang-(1-7), Asp-Arg-Val-Tyr-Ile-His-Pro]	14 min				Cmax [8]: ~200 nM; maximum CSF concentration [9]: about 50 nM; pKd [10]: 9.08
PN-A3: native Ang(1-7) sequence with added C-terminal Ser8, glucosylated and C-terminally amidated (NH2); SEQ ID NO: 9 (DRVYIHPS; glucosylated, C-terminal amide; (8)..(8) Glycosylated; (8)..(8) Carboxy terminal NH2; See specification as filed for detailed description of substitutions and preferred embodiments)		significant elevation	~2 fold	~2 fold	
PN-A4: native Ang(1-7) sequence with added C-terminal Ser8, lactosylated and C-terminally amidated (NH2); SEQ ID NO: 9 (DRVYIHPS; lactosylated, C-terminal amide; (8)..(8) Glycosylated; (8)..(8) Carboxy terminal NH2; See specification as filed for detailed description of substitutions and preferred embodiments)		significant elevation		~2 fold	
